Source: the supplement of paper PMC11208160

Experiment: recombinant barcode read abundance after kanamycin selection (control-corrected) (log10(CPM+1)); higher = more efficient recombination; sequences stand for … in AGTGCAGAGAAAATCGGCCAGTTTTCTCTGCCTGCAGTCCGCATGCCGT…ATTTATGCAGCGGACTGCCTTTCTCCCAAAGTGATAAACCGGACAGTATCATGGACCGGTTTTCCCGGTAATCCGTATTTGCAAGGTTGGTTTCACT; site = the 11-nt target
Outline: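 Reported as log10(CPM+1), each value stands for recombination efficiency. That efficiency is the averaged, control-corrected counts per million of barcodes found at recombinant junctions. Cells from a pooled E. coli library pairing targets with IS621 bridge RNA target-binding loops were plated twice on chloramphenicol/ampicillin LB agar (control) and twice on chloramphenicol/ampicillin/kanamycin with 0.1 mM IPTG.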

Sequence	recombinant barcode read abundance (log10)
GGTGCCCAATGGGTTCTAACCTGTTGCCGAG [GGTGCCCCTCG_LTGcore_AA_RTGcore_CT] (site GGTGCCCCTCG) (LTG core: AA, RTG core: CT)	0.135
GGTGCCCACTGGGTTCTAACCTGTTGCCGGT [GGTGCCCCTCG_LTGcore_AC_RTGcore_AC] (site GGTGCCCCTCG) (LTG core: AC, RTG core: AC)	0.066
GGTGCCCAGTGGGTTCTAACCTGTTGCCGCT [GGTGCCCCTCG_LTGcore_AG_RTGcore_AG] (site GGTGCCCCTCG) (LTG core: AG, RTG core: AG)	0.102
GGTGCCCCTTGGGTTCTAACCTGTTGCCGAT [GGTGCCCCTCG_LTGcore_CT_RTGcore_AT] (site GGTGCCCCTCG) (LTG core: CT, RTG core: AT)	0.19
GGTGCCCCTTGGGTTCTAACCTGTTGCCGCC [GGTGCCCCTCG_LTGcore_CT_RTGcore_GG] (site GGTGCCCCTCG) (LTG core: CT, RTG core: GG)	0.0795
GGTGCCCCTTGGGTTCTAACCTGTTGCCGCG [GGTGCCCCTCG_LTGcore_CT_RTGcore_CG] (site GGTGCCCCTCG) (LTG core: CT, RTG core: CG)	0.222
GGTGCCCCTTGGGTTCTAACCTGTTGCCGCT [GGTGCCCCTCG_LTGcore_CT_RTGcore_AG] (site GGTGCCCCTCG) (LTG core: CT, RTG core: AG)	0.0402
GGTGCCCCTTGGGTTCTAACCTGTTGCCGGC [GGTGCCCCTCG_LTGcore_CT_RTGcore_GC] (site GGTGCCCCTCG) (LTG core: CT, RTG core: GC)	0.83
GGTGCCCCTTGGGTTCTAACCTGTTGCCGGT [GGTGCCCCTCG_LTGcore_CT_RTGcore_AC] (site GGTGCCCCTCG) (LTG core: CT, RTG core: AC)	0.0162
GGTGCCCGGTGGGTTCTAACCTGTTGCCGCC [GGTGCCCCTCG_LTGcore_GG_RTGcore_GG] (site GGTGCCCCTCG) (LTG core: GG, RTG core: GG)	0.0147
GGTGCCCGTTGGGTTCTAACCTGTTGCCGAG [GGTGCCCCTCG_LTGcore_GT_RTGcore_CT] (site GGTGCCCCTCG) (LTG core: GT, RTG core: CT)	0.0597
GGTGCCCTTTGGGTTCTAACCTGTTGCCGAA [GGTGCCCCTCG_LTGcore_TT_RTGcore_TT] (site GGTGCCCCTCG) (LTG core: TT, RTG core: TT)	0.622
GTCGCCCAATGGGTTCTAACCTGTTGCTAAG [GTCGCCCCTTA_LTGcore_AA_RTGcore_CT] (site GTCGCCCCTTA) (LTG core: AA, RTG core: CT)	0.688
GTCGCCCACTGGGTTCTAACCTGTTGCTAAG [GTCGCCCCTTA_LTGcore_AC_RTGcore_CT] (site GTCGCCCCTTA) (LTG core: AC, RTG core: CT)	0.309
GTCGCCCCATGGGTTCTAACCTGTTGCTAAG [GTCGCCCCTTA_LTGcore_CA_RTGcore_CT] (site GTCGCCCCTTA) (LTG core: CA, RTG core: CT)	2.04
GTCGCCCCCTGGGTTCTAACCTGTTGCTAAG [GTCGCCCCTTA_LTGcore_CC_RTGcore_CT] (site GTCGCCCCTTA) (LTG core: CC, RTG core: CT)	0.771
GTCGCCCCTTGGGTTCTAACCTGTTGCTAAT [GTCGCCCCTTA_LTGcore_CT_RTGcore_AT] (site GTCGCCCCTTA) (LTG core: CT, RTG core: AT)	0.474
GTCGCCCCTTGGGTTCTAACCTGTTGCTACG [GTCGCCCCTTA_LTGcore_CT_RTGcore_CG] (site GTCGCCCCTTA) (LTG core: CT, RTG core: CG)	0.323
GTCGCCCCTTGGGTTCTAACCTGTTGCTAGA [GTCGCCCCTTA_LTGcore_CT_RTGcore_TC] (site GTCGCCCCTTA) (LTG core: CT, RTG core: TC)	0.304
GTCGCCCGCTGGGTTCTAACCTGTTGCTAGC [GTCGCCCCTTA_LTGcore_GC_RTGcore_GC] (site GTCGCCCCTTA) (LTG core: GC, RTG core: GC)	0.459
GTCGCCCTCTGGGTTCTAACCTGTTGCTAAG [GTCGCCCCTTA_LTGcore_TC_RTGcore_CT] (site GTCGCCCCTTA) (LTG core: TC, RTG core: CT)	0
TAAGAATACTGGGTTCTAACCTGTTGCCTGT [TAAGAATCTAG_LTGcore_AC_RTGcore_AC] (site TAAGAATCTAG) (LTG core: AC, RTG core: AC)	0.0208
TAAGAATCATGGGTTCTAACCTGTTGCCTAG [TAAGAATCTAG_LTGcore_CA_RTGcore_CT] (site TAAGAATCTAG) (LTG core: CA, RTG core: CT)	0.838

Sequence	recombinant barcode read abundance (log10)
TAAGAATCTTGGGTTCTAACCTGTTGCCTAC [TAAGAATCTAG_LTGcore_CT_RTGcore_GT] (site TAAGAATCTAG) (LTG core: CT, RTG core: GT)	0.116
TAAGAATCTTGGGTTCTAACCTGTTGCCTCA [TAAGAATCTAG_LTGcore_CT_RTGcore_TG] (site TAAGAATCTAG) (LTG core: CT, RTG core: TG)	0.343
TAAGAATCTTGGGTTCTAACCTGTTGCCTCC [TAAGAATCTAG_LTGcore_CT_RTGcore_GG] (site TAAGAATCTAG) (LTG core: CT, RTG core: GG)	0.142
TAAGAATCTTGGGTTCTAACCTGTTGCCTGT [TAAGAATCTAG_LTGcore_CT_RTGcore_AC] (site TAAGAATCTAG) (LTG core: CT, RTG core: AC)	0.0874
TAAGAATGATGGGTTCTAACCTGTTGCCTAG [TAAGAATCTAG_LTGcore_GA_RTGcore_CT] (site TAAGAATCTAG) (LTG core: GA, RTG core: CT)	0.0742
TAAGAATGCTGGGTTCTAACCTGTTGCCTGC [TAAGAATCTAG_LTGcore_GC_RTGcore_GC] (site TAAGAATCTAG) (LTG core: GC, RTG core: GC)	0.0564
TAAGAATGGTGGGTTCTAACCTGTTGCCTCC [TAAGAATCTAG_LTGcore_GG_RTGcore_GG] (site TAAGAATCTAG) (LTG core: GG, RTG core: GG)	0.113
TAAGAATTCTGGGTTCTAACCTGTTGCCTGA [TAAGAATCTAG_LTGcore_TC_RTGcore_TC] (site TAAGAATCTAG) (LTG core: TC, RTG core: TC)	0.0111
TAAGAATTGTGGGTTCTAACCTGTTGCCTCA [TAAGAATCTAG_LTGcore_TG_RTGcore_TG] (site TAAGAATCTAG) (LTG core: TG, RTG core: TG)	0.0917
TAGAGGGATTGGGTTCTAACCTGTTGCGGAG [TAGAGGGCTCC_LTGcore_AT_RTGcore_CT] (site TAGAGGGCTCC) (LTG core: AT, RTG core: CT)	0.147
TAGAGGGCGTGGGTTCTAACCTGTTGCGGAG [TAGAGGGCTCC_LTGcore_CG_RTGcore_CT] (site TAGAGGGCTCC) (LTG core: CG, RTG core: CT)	2.42
TAGAGGGGTTGGGTTCTAACCTGTTGCGGAG [TAGAGGGCTCC_LTGcore_GT_RTGcore_CT] (site TAGAGGGCTCC) (LTG core: GT, RTG core: CT)	0.85
TCGCGACATTGGGTTCTAACCTGTTGCCGAT [TCGCGACCTCG_LTGcore_AT_RTGcore_AT] (site TCGCGACCTCG) (LTG core: AT, RTG core: AT)	0.205
TCGCGACCCTGGGTTCTAACCTGTTGCCGAG [TCGCGACCTCG_LTGcore_CC_RTGcore_CT] (site TCGCGACCTCG) (LTG core: CC, RTG core: CT)	0.466
TCGCGACCGTGGGTTCTAACCTGTTGCCGCG [TCGCGACCTCG_LTGcore_CG_RTGcore_CG] (site TCGCGACCTCG) (LTG core: CG, RTG core: CG)	0.0313
TCGCGACCTTGGGTTCTAACCTGTTGCCGAC [TCGCGACCTCG_LTGcore_CT_RTGcore_GT] (site TCGCGACCTCG) (LTG core: CT, RTG core: GT)	0.201
TCGCGACCTTGGGTTCTAACCTGTTGCCGGC [TCGCGACCTCG_LTGcore_CT_RTGcore_GC] (site TCGCGACCTCG) (LTG core: CT, RTG core: GC)	0.0211
TCGCGACCTTGGGTTCTAACCTGTTGCCGTG [TCGCGACCTCG_LTGcore_CT_RTGcore_CA] (site TCGCGACCTCG) (LTG core: CT, RTG core: CA)	0.0363
TCGCGACGGTGGGTTCTAACCTGTTGCCGAG [TCGCGACCTCG_LTGcore_GG_RTGcore_CT] (site TCGCGACCTCG) (LTG core: GG, RTG core: CT)	0.167
TCGCGACTGTGGGTTCTAACCTGTTGCCGAG [TCGCGACCTCG_LTGcore_TG_RTGcore_CT] (site TCGCGACCTCG) (LTG core: TG, RTG core: CT)	0.302
TCGCGACTTTGGGTTCTAACCTGTTGCCGAG [TCGCGACCTCG_LTGcore_TT_RTGcore_CT] (site TCGCGACCTCG) (LTG core: TT, RTG core: CT)	0.282
TCTACCCAGTGGGTTCTAACCTGTTGCTGCT [TCTACCCCTCA_LTGcore_AG_RTGcore_AG] (site TCTACCCCTCA) (LTG core: AG, RTG core: AG)	0.24
